Like-named read-outs stand apart in the source and are kept apart here.
Key:
[1] = tested on: fibrin-induced microglia activation; assay: Image-based assay of fibrin-induced microglia activation (HTS and dose response); type: cell-based, rat
mouse BMDMs = assay: ROS production (DHE) in fibrin-stimulated mouse BMDMs; type: cell-based; details: fibrin 24 h, 5 μM inhibitor, FIG. 6b
Protocol: Bone marrow—derived macrophage cultures. […]. In brief, bone-marrow cells were isolated from tibia and femur of C57BL/6 mice, Ggt1^+/+ mice or Ggt1^dwg/dwg mice and cultured in RPMI-1640 medium supplemented with 10% FBS, 1% penicillin-streptomycin (Corning), and 10 ng/ml murine M-CSF (14-8983-80, Thermo Fisher Scientific). On days 6-7, adherent BMDMs were harvested by adding PBS with 5 mM EDTA to the plates and used for assays.
Human macrophage cultures. Human peripheral blood mononuclear cells (PBMCs) were purchased from AllCells, LLC (Alameda, Calif.). To differentiate PBMC into monocyte-derived macrophages, 2×10^6 PBMC/mL were plated in RPMI-1640 media supplemented with 10% FBS, 1% penicillin-streptomycin (Corning), and 50 ng/ml human M-CSF (300-25, Peprotech) in tissue-culture treated dishes (Corning). After 24 h, non-adherent cells were removed, and adherent cells were cultivated for 7-8 additional days at 37° C. in 5% CO2 to promote their full differentiation into macrophages. Oxidant detection with DHE. Intracellular concentrations of ROS were measured using dihydroethidium (DHE) as described (9). […] The DHE fluorescence was detected at an excitation/emission wavelength of 518 nm/605 nm using a SpectraMax M5 microplate reader (Molecular Devices) with SoftMax Pro 5.2 software (Phoenix Technologies Ltd.).

human macrophages = assay: ROS production (DHE) in fibrin-stimulated human macrophages; type: cell-based; details: fibrin 24 h, 5 μM inhibitor, FIG. 6b
Protocol: Human macrophage cultures. Human peripheral blood mononuclear cells (PBMCs) were purchased from AllCells, LLC (Alameda, Calif.). To differentiate PBMC into monocyte-derived macrophages, 2×10^6 PBMC/mL were plated in RPMI-1640 media supplemented with 10% FBS, 1% penicillin-streptomycin (Corning), and 50 ng/ml human M-CSF (300-25, Peprotech) in tissue-culture treated dishes (Corning). After 24 h, non-adherent cells were removed, and adherent cells were cultivated for 7-8 additional days at 37° C. in 5% CO2 to promote their full differentiation into macrophages. Oxidant detection with DHE. Intracellular concentrations of ROS were measured using dihydroethidium (DHE) as described (9). Cultured BMDMs or human macrophages were incubated in medium containing 5 μM DHE (Invitrogen) for 30 min Cells were plated on 96-well, black μ-clear-bottom microtiter plates (Greiner Bio-One) pre-coated with 25 μg/ml fibrin. For GGT inhibition, BMDMs or human macrophages were pre-incubated with 5 μM acivicin or GGsTop for 1 h, and the cells were plated on fibrin-coated 96-well plates as described above. PBS was used as vehicle control. Cells were then incubated for 24-48 h and fixed with 4% PFA for 10 min. The DHE fluorescence was detected at an excitation/emission wavelength of 518 nm/605 nm using a SpectraMax M5 microplate reader (Molecular Devices) with SoftMax Pro 5.2 software (Phoenix Technologies Ltd.).

microglia = type: in vivo, mouse; details: healthy mice, 14 days, FIG. 12
Protocol: FIGS. 12A-E. Effects of acivicin on microglia, macrophage and whole blood cell numbers. a, Representative images showing morphology and density of primary microglia treated with vehicle or acivicin for 48 h stained with nuclei marker Hoechst or CellMask Red Whole Cell Stain. Quantification of the total number of microglia. Data are representative of one experiment with technical replicates (open symbols). b, Representative confocal images showing morphology and density of control- and acivicin-treated BMDMs treated for 24 h. Scale bar, 100 μm. Insets depict digitally zoomed in areas of regions of interest. Quantification of the total number of BMDMs in the field of view. […] Cell viability of single CD45^+ cells was assessed by Sytox blue live/dead nuclei stain. Quantification of percent cell viability of CD45^+ BMDMs treated with acivicin or left untreated. Data are from 2 independent experiments with n=4 mice per group (mean±s.d.). d, Quantification of complete blood count analysis of white blood cells (WBCs), red blood cells (RBC), platelets (PLT) (left) and composition of WBCs (right) of blood samples from healthy mice treated with saline or acivicin for 10 days. […] Quantification of total microglia cell numbers in healthy mice treated with acivicin or saline. […]

[2] = Serum protein carbonyl content assay in MOG35-55 EAE mice; type: in vivo, mouse; details: FIG. 7g
Protocol: Protein carbonyl content assay. Blood was isolated from EAE mice via terminal cardiac puncture, and serum levels of protein carbonylation were measured with OxiSelect™ Protein Carbonyl ELISA (Cell Biolabs) according to the manufacturer's protocol. The absorbance at 450 nm was measured using a SpectraMax M5 microplate reader (Molecular Devices) with SoftMax Pro 5.2 software (Phoenix Technologies Ltd.).

neuronal viability = details: similar concentration range; cited from earlier work

For `N[C@H](C(=O)O)[C@@H]1CC(Cl)=NO1` [Acivicin, (2S)-2-amino-2-[(5S)-3-chloro-4,5-dihydro-1,2-oxazol-5-yl] acetic acid], the IC50 ([1]; Rattus norvegicus, Microglia, 48 h, Table 1, dose response 0.001-20 μM, triplicates, primary rat microglia, 48 h, read-out: Fibrin IC50) was 2 µM, the IC50 ([1]; Rattus norvegicus, Microglia, Table 7, read-out: fib_IC50) was 0.57 µM and the IC50 ([1]; Rattus norvegicus, Microglia, dose response, fibrin-induced microglia activation, read-out: Fibrin IC50) was 2 µM. The IC50 ([1]; Rattus norvegicus, Microglia, fibrin-induced microglia activation, dose response, read-out: Fibrin IC50 (uM) (Suppl. Table 7)) was 2 µM, the inhibition at 10 µM ([1]; Rattus norvegicus, Microglia, primary microglia HTS, fibrin stimulation, increased cell size (>800 μm^2) as marker of activation, read-out: Fibrin % inhibition) was 90% and the fibrin-induced microglial activation ([1]; dose-dependent, FIG. 6a) was “inhibited”. The “ROS generation (DHE) in mouse macrophages” value (mouse BMDMs) was “decreased”, the “ROS generation (DHE) in human macrophages” value (human macrophages) was “decreased” and the “microglia numbers in the spinal cord in vivo” value (microglia) was “did not affect”. The “serum protein carbonyl content” value [2] was “markedly reduced” and the neuronal viability (neuronal viability) was “does not affect”.
